Results from patent US6630583B1, “Antibiotics and methods of using the same” (priority 1998, dated 2003).

Legend:
HK mutant = assay: Phenotypes of the mutants: lysis by penicillin, vancomycin, DOC; type: cell-based, S. pneumoniae
Method: (§1) Construction of mutations: Insertion duplication mutagenesis was carried out using PCR to generate gene fragments for homologous recombination proximal to the amino terminus of OrfW1, HK or RR as follows:
(§2) Phenotypes of the mutants: The mutants were assessed for various physiological functions characteristic of pneumococci. This included lysis by penicillin, vancomycin, and the detergent deoxycholate (DOC). Other capabilities tested included ability to undergo natural DNA transformation (Transform) and expression of the LytA protein as assessed by Western blot.

Orf W1 mutant = assay: as above; type: cell-based, S. pneumoniae
Method: as §1, §2

RR mutant = assay: as above; type: cell-based, S. pneumoniae
Method: as §1, §2

[1] = tested on: loss of function mutants of the ABC transporter and RR/HK; assay: Tolerance of loss of function mutants; type: cell-based, S. pneumoniae; conditions: growth inhibitory concentrations
Source text: As described in Example 6, using insertion duplication mutagenesis, loss of function mutations were obtained in each of the 3 open reading frames of the ABC transporter and each of the two parts of the RR/HK. […] These parallel phenotypes further implicate these topographically close genes in a common pathway.
Vancomycin is the only antibiotic that maintains efficacy against many strains of highly antibiotic resistant bacteria, such as staphylococci, enterococci and pneumococci. Escape from antibiotic activity of vancomycin has been detected in rare staphylococci and enterococci but not in pneumococci as yet. […] Infect. Dis. J., 12:196-200 (1993); Marton et al., J. Infect. Dis., 163:542-8 (1991); and Bradley et al., Pediatr. Infect. Dis., 14:1037-1041 (1995)]. […] If they created a phenotype which was corrected by exogenous peptide, they may participate in the biological activity of the peptide. For instance, the ABC transporter may transport the peptide and the HK may serve as an extracellular receptor for the peptide which then changes the behavior of the bacteria (i.e., killing) via a RR signal.

clinical isolate A144 = assay: Cell viability (CFU/ml) one hour after addition; type: cell-based, pneumococcus; conditions: 10×MIC of penicillin, 1×MIC of vancomycin or 0.4 mM peptide
Source text: Tolerance to penicillin occurs in bacteria that fail to trigger autolysins in response to the drug. […] This is a mechanism of resistance to these drugs and is a serious emerging medical problem. […] However, one pneumococcal strain that fails to lyse and dies slowly in response to both penicillin and vancomycin is the clinical isolate A144. This combination of traits makes A144 recalcitrant to therapy. FIG. 8 compares the activity of penicillin, vancomycin, and the peptide having the amino acid sequence of SEQ ID NO:2 against a classical sensitive strain, R6, and the tolerant strain A144. […] In contrast, strain A144 loses only 0.5 logs of viability in the same time period for all three therapies. […] Thereafter the bacteria grew more slowly than untreated controls.

clinical isolate F79 = assay: Lysis of tolerant clinical isolate; type: cell-based, pneumococcus; conditions: 10×MIC of penicillin and/or 0.5 mM peptide
Method: FIGS. 11A-11B show the effects of 10×MIC of penicillin and/or 0.5 mM of the peptide having the amino acid sequence of SEQ ID NO:2 on the lysis of clinical isolate F79 cells (FIG. 11A) and HK mutant VanS cells (FIG. 11B).
F79 is a natural isolate of pneumococcus with mutations in the HK and the ABC transporter genes as determined by SSCP (see Example 11).

parent strain R6 = assay: Effect of vancomycin treatment on viability; type: cell-based, S. pneumoniae; conditions: R6, vancomycin 10×MIC (5 μg/ml), over 4 hours
Method: Bacterial viability was followed for six hours.
(§3) The effect of penicillin and vancomycin treatment on the viability was determined by exposing 10 ml cultures in the early exponential phase of growth (OD620nm=0.3, corresponding 5×10^7 cfu/ml) to ten times the MIC of benzylpenicillin or vancomycin, respectively. After various times of exposure, 100 μl portions were removed, serially diluted in C+Y and in the case of penicillin supplemented with 100 units of penicillinase (Sigma), and plated on tryptic-soy agar supplemented with 3% sheep blood (v/v).

[2] = tested on: strain RNET01 (vncS over-expressed); assay: Effect of vancomycin treatment on viability; type: cell-based, S. pneumoniae; conditions: RNET01, vancomycin 10×MIC (5 μg/ml), over 4 hours
Method: as §3
To address the question if the kinase/phosphatase VncS was indeed directly linked to the major pneumococcal autolytic pathway, VncS was overexpressed from a plasmid in a vncS deficient knockout mutant. […] To establish a possible correlation between over-expression of the vncS gene and cell death RNET01 and R6 were exposed to vancomycin.

vexp3 mutant = assay: Effect of antibiotic treatment on viability; type: cell-based, S. pneumoniae; conditions: 10×MIC of vancomycin, in 4 hours
Method: Bacterial viability was followed for six hours. (Parent strain, R6 (□), vex3 mutant (◯), and vncS mutant (⋄)).
as §3

[3] = tested on: leucine deprived R6 cells; assay: Stringent response: lysis after leucine deprivation; type: cell-based, S. pneumoniae; conditions: 10×MIC of penicillin or vancomycin, 0.2 mM P27, or combination
Method: P27 and the stringent response mechanism: The stringent response is believed to prevent the death pathway. To clarify the relationship of the stringent response to P27 activity, protein synthesis of R6 was inhibited by leucine deprivation and the effect of P27 was monitored (FIG. 19). […] The minimum concentration of penicillin required to cause penicillin dependent autolysis was equal to its MIC ([…]).

mutant SPSJ01 = assay: Screen of library of loss of function mutants for antibiotic tolerance; type: cell-based, pneumococcus
Source text: To detect genes that are part of the trigger pathway of the pneumococcal autolysin a library of loss of function mutants has been created, which was screened for antibiotic tolerance [Pearce et al., Mol. Microbiol., 9:1037-1050 (1993)]. […] It is reasonable to assume that this two component system represents the start of the pneumococcal autolytic trigger pathway, functioning as a relay station reacting to cell density signals or the binding of antibiotics to penicillin binding proteins. Similar to the enterococcal histidine kinase VanSB, the pneumococcal VncS works most likely as a kinase/phosphatase (see Example 1, above).

## CN[C@H](CC(C)C)C(=O)N[C@H]1C(=O)N[C@@H](CC(N)=O)C(=O)N[C@H]2C(=O)N[C@H]3C(=O)N[C@H](C(=O)N[C@H](C(=O)O)c4cc(O)cc(O)c4-c4cc3ccc4O)[C@H](O)c3ccc(c(Cl)c3)Oc3cc2cc(c3O[C@@H]2O[C@H](CO)[C@@H](O)[C@H](O)[C@H]2O[C@H]2C[C@](C)(N)[C@H](O)[C@H](C)O2)Oc2ccc(cc2Cl)[C@H]1O [vancomycin]
HK mutant
  Lysis by: tolerant
Orf W1 mutant
  Lysis by: tolerant
RR mutant
  Lysis by: sensitive
[1]
  tolerance (lysis and death): exhibited tolerance
Clinical isolate A144
  loss of viability: 0.5 logs
Clinical isolate F79
  lysis of F79: tolerant
Parent strain R6
  loss in viability (kill): 4 log
[2]
  loss in viability: 1 log
vexp3 mutant
  kill: less than 2 log
[3]
  lysis of R6 under leucine deprivation: neither the addition of 10×the MIC of penicillin or vancomycin nor the addition of 0.2 mM P27 resulted in lysis
Mutant SPSJ01
  death in the presence of antibiotic: failed to die
